The target in assay [1] is T1, tcTERT (Tribolium castaneum, UniProt Q0QHL8). The assay is described as follows: Pre-steady-state single-turnover kinetics of tcTERT single nucleotide insertion. Further details: tcTERT kobs: unit not given here. The class given is biochemical. To be noted: for Fold change: catalytic efficiency relative to dGTP. From the text:
In order to better understand the ability of modified dNTPs to compete with natural dNTPs for telomerase utilization, we added modified dNTPs to reactions containing all four natural dNTPs. […] The calculated IC50 determines the concentration required to reduce repeat processivity in the bulk reactions by half. However, it is important to note that bulk experiments cannot distinguish effects on individual telomeres, since extended telomeres mask unextended telomeres. Incorporation of a chain terminator during any step will terminate extension of the affected telomere, and just five critically short telomeres are sufficient to trigger senescence. Therefore, repeat processivity IC50 values are not necessarily an indicator of the inhibitory potency, but provide information on selectivity for modified dNTPs compared to natural dNTPs. […] The ability to purify sufficient quantities of tcTERT enables characterization of the catalytic nucleotide addition by pre-steady-state single turnover kinetics using a defined DNA–RNA primer–template substrate. The catalytic efficiency of incorporating a single dNTP is measured by dividing the observed nucleotide incorporation rate constant, kpol, by the equilibrium dissociation constant for dNTP binding to the tcTERT–primer–template complex (Kd)[44].
Pre-steady-state kinetic parameters of tcTERT were obtained using established pre-steady-state kinetics protocols for DNA polymerases, also known as single turnover kinetics[70],[71]. Briefly, we preincubated 2 μM tcTERT with 200 nM annealed DNA:RNA hybrid substrate, with a 6-FAM label on the 5′ end of the DNA component. We then used a KinTek RQF-3 (a rapid quench-flow instrument) to mix equal ratios of the incoming nucleotide triphosphate and 10 mM MgCl2 with the existing mix of tcTERT and its DNA:RNA hybrid substrate. Reactions were run at 37 °C and quenched at various timepoints with 100 mM EDTA pH 7.5. […] After each reaction, the samples were transferred to a DNA gel loading buffer, containing 100 mM EDTA, 80% deionized formamide, 0.25 mg ml^−1 bromophenol blue, and 0.25 mg ml^−1 xylene cyanol. These mixes were then incubated at 95 °C for 5 min, and loaded onto a 21% denaturing polyacrylamide gel. These gels were run at 700 V, […], and 30 W at 30 °C in order to separate the reaction product from its substrate.
Means and standard deviations from at least three independent replicates were calculated, and graphed using KaleidaGraph version 4.5.2. Plots of product formation over time were fit to the exponential equation (1) to determine kobs values:1 P=A(1−e^−kobst).
In which [P] is the concentration of the product, A is the target engagement (amplitude), and t is the reaction time. After kobs values were determined for multiple nucleotide triphosphate concentrations, the data was replot to compare kobs to concentration of nucleotide triphosphate, and fit to Eq. (2):2 kobs=kpol[NTP]/Kd+[NTP]. with kpol representing the theoretical maximum value of kobs, and [NTP] representing the concentration of the nucleotide of interest.

Assay [2] has as its target polymerase β (Homo sapiens, UniProt P06746). The assay is described as follows: Polymerase β dGTP run-on assay. Conditions: 50 or 200 μM dGTP. It is filed as biochemical. As to the method: These mixes were then incubated at 95 °C for 5 min, and loaded onto a 21% denaturing polyacrylamide gel. These gels were run at 700 V, […], and 30 W at 30 °C in order to separate the reaction product from its substrate.
Supplementary Fig 4. Time course reactions with telomerase or pol β. (a, b) Telomerase reactions were conducted with 5 nM 32P-end labeled primer (a) Primer 4 (GTTAGG)3 or (b) Primer 2 (GGTTAG)3.
Products were separated on denaturing gels. Letters on the right indicate the template base; P indicates unextended 18-mer primer. Graphs represent the percent primer extended for the reactions in panels a and b from one experiment. ( c, d) Primer extension by human polymerase b. The double stranded 6- […]
reactions were run on denaturing gels and imaged using a Typhoon phosphoimager. P indicates unextended 13-mer primer from three independent experiments. Source data are provided as a Source […]

Assay [3] has as its target T1, tcTERT. Conditions: cited from earlier work.
Where [4] appears, read: dNTP binding to tcTERT-primer-template complex.

Where “and” joins values, the source holds several entries; their conditions need not be identical. Equal values may be shown once. Read-outs that look alike come from different tables or passages of the source.

T1 sequence (Q0QHL8 entry or part of it): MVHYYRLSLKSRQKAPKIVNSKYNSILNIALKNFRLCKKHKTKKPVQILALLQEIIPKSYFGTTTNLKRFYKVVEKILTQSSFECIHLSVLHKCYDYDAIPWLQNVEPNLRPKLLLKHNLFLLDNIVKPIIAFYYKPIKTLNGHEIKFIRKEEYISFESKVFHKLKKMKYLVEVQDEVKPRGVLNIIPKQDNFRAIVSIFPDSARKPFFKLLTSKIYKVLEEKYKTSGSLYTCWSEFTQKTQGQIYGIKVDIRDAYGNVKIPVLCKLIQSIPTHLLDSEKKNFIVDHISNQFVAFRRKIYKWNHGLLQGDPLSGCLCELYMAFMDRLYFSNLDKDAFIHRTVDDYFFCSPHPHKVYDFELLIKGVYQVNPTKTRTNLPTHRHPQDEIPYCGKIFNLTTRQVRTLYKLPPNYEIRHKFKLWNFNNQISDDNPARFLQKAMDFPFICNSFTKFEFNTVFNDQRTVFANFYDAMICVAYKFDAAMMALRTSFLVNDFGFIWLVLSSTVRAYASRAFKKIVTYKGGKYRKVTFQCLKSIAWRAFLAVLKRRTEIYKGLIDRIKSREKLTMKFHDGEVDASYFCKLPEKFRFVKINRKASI

`Nc1nc2c(ncn2C2CC(O)C(COP(=O)(O)OP(=O)(O)OP(=O)(O)O)O2)c(=S)[nH]1` (stereo not shown) [6-thio-dGTP]: the tcTERT kobs in assay [1] ([6-thio-dGTP] 0.5 uM, Mean) is 0.024; in assay [1] ([6-thio-dGTP] 0.5 uM, single replicates), 0.020 and 0.017 and 0.037; in assay [1] ([6-thio-dGTP] 1 uM, Mean), 0.036; in assay [1] ([6-thio-dGTP] 1 uM, single replicates), 0.046 and 0.026 and 0.035; in assay [1] ([6-thio-dGTP] 3 uM, Mean) it was 0.084; in assay [1] ([6-thio-dGTP] 3 uM, single replicates), 0.093 and 0.083 and 0.076. Further, the tcTERT kobs was 0.142 in assay [1] ([6-thio-dGTP] 5 uM, Mean); 0.256 and 0.136 and 0.070 and 0.105 in assay [1] ([6-thio-dGTP] 5 uM, single replicates); 0.143 in assay [1] ([6-thio-dGTP] 7 uM, Mean); 0.232 and 0.073 and 0.125 in assay [1] ([6-thio-dGTP] 7 uM, single replicates); 0.239 in assay [1] ([6-thio-dGTP] 10 uM, Mean); 0.389 and 0.333 and 0.126 and 0.109 in assay [1] ([6-thio-dGTP] 10 uM, single replicates). Further, the tcTERT kobs was 0.330 in assay [1] ([6-thio-dGTP] 15 uM, Mean); 0.523 and 0.151 and 0.314 in assay [1] ([6-thio-dGTP] 15 uM, single replicates); 0.552 in assay [1] ([6-thio-dGTP] 20 uM, Mean); 0.535 and 0.464 and 0.603 and 0.606 in assay [1] ([6-thio-dGTP] 20 uM, single replicates); 0.632 in assay [1] ([6-thio-dGTP] 25 uM, Mean); 0.411 and 0.737 and 0.749 in assay [1] ([6-thio-dGTP] 25 uM, single replicates). For the same compound, the tcTERT kobs is 0.951 in assay [1] ([6-thio-dGTP] 40 uM, Mean); 0.795 and 1.041 and 1.018 in assay [1] ([6-thio-dGTP] 40 uM, single replicates); 1.139 in assay [1] ([6-thio-dGTP] 50 uM, Mean); 1.051 and 1.270 and 1.096 in assay [1] ([6-thio-dGTP] 50 uM, single replicates); 1.424 in assay [1] ([6-thio-dGTP] 75 uM, Mean); 1.281 and 1.438 and 1.554 in assay [1] ([6-thio-dGTP] 75 uM, single replicates). In addition, the tcTERT kobs in assay [1] ([6-thio-dGTP] 100 uM, Mean) was 1.760; in assay [1] ([6-thio-dGTP] 100 uM, single replicates), 1.806 and 1.680 and 1.793; in assay [1] ([6-thio-dGTP] 150 uM, Mean), 1.896; in assay [1] ([6-thio-dGTP] 150 uM, single replicates) it was 1.870 and 2.039 and 1.778. The Fold change in assay [1] is on record as 0.579. Besides, binding in assay [1] (setting [4]) was characterised by a dissociation constant (Kd) of 92.4 ± 12.9 µM. In assay [1] (single nucleotide insertion, 37 °C), this compound yielded a kpol of 3.1 ± 0.23 s⁻¹.
On to `Nc1nc2c(ncn2C2CC(O)C(COP(=O)(O)OP(=O)(O)OP(=O)(O)O)O2)c(=O)[nH]1` (stereo not shown) [dGTP], for which, in assay [1], the “Fold higher catalytic efficiency of dGTP compared to 6-thio-dGTP” value is 2 fold and the Fold change is 1.000. Further, in assay [2], the “Laddering or misincorporation by DNA polymerase β (in words)” value is “no evidence of dGTP laddering or misincorporation opposite template A”. Besides, the Kd in assay [3] (setting [4]) was 18.1 ± 3.78 µM. Also, in assay [3] (single nucleotide insertion), the “Catalytic efficiency (kpol/Kd)” value was 58000 ± 12000 M⁻¹ s⁻¹ and the kpol was 1.1 ± 0.03 s⁻¹.

In general, Kd refers to the equilibrium constant for the complex coming apart.

The values are drawn from PMC7576608, “Mechanisms of telomerase inhibition by oxidized and therapeutic dNTPs” (Nature Communications, 2020).
